According to ChEMBL document CHEMBL1201861, “Genomics of Drug Sensitity in Cancer screening data, Wellcome Trust Sanger Institute”:

Columns and labels:
Experiment in all cases: cells
BT-20 = type: functional, cell-based, Homo sapiens; conditions: Homo sapiens, BT-20;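 further: cell viability assay measuring suppression of growth in human BT-20 cells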
Description: SANGER: Inhibition of human BT-20 cell growth in a cell viability assay.

LN-405 = type: functional, cell-based, Homo sapiens; conditions: Homo sapiens, LN-405
Description: SANGER: Inhibition of human LN-405 cell growth in a cell viability assay.

BB49-HNC = type: functional, cell-based, Homo sapiens; conditions: Homo sapiens, BB49-HNC;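 further: cell viability assay read-out, reported as inhibition of BB49-HNC cell growth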
Description: SANGER: Inhibition of human BB49-HNC cell growth in a cell viability assay.

MSTO-211H = type: functional, cell-based, Homo sapiens; conditions: Homo sapiens, MSTO-211H
Description: SANGER: Inhibition of human MSTO-211H cell growth in a cell viability assay.

KARPAS-45 = type: functional, cell-based; conditions: Homo sapiens;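 further: inhibition of cell line growth, read out through a viability assay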
Description: SANGER: Inhibition of human KARPAS-45 cell growth in a cell viability assay.

8305C = type: functional, cell-based, Homo sapiens; conditions: Homo sapiens, 8305C
Description: SANGER: Inhibition of human 8305C cell growth in a cell viability assay.

NB5 = type: functional, cell-based, Homo sapiens; conditions: Homo sapiens, NB5;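 further: growth inhibition of NB5 cells, read out as cell viability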
Description: SANGER: Inhibition of human NB5 cell growth in a cell viability assay.

G-402 = type: functional, cell-based, Homo sapiens; conditions: Homo sapiens, G-402
Description: SANGER: Inhibition of human G-402 cell growth in a cell viability assay.

RVH-421 = type: functional, cell-based, Homo sapiens; conditions: Homo sapiens, RVH-421
Description: SANGER: Inhibition of human RVH-421 cell growth in a cell viability assay.

SW-620 = type: functional, cell-based, Homo sapiens; conditions: Homo sapiens, SW-620;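 further: growth inhibition of human SW-620 cells, measured by a cell viability assay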
Description: SANGER: Inhibition of human SW620 cell growth in a cell viability assay.

COLO-792 = type: functional, cell-based, Homo sapiens; conditions: Homo sapiens, COLO-792
Description: SANGER: Inhibition of human COLO-792 cell growth in a cell viability assay.

SW 962 = type: functional, cell-based, Homo sapiens; conditions: Homo sapiens, SW 962;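 further: growth inhibition of human SW962 cells, read out by a cell viability assay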
Description: SANGER: Inhibition of human SW962 cell growth in a cell viability assay.

NCI-H2342 = type: functional, cell-based; conditions: Homo sapiens;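 further: growth inhibition of the cancer cell line, determined with a cell viability assay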
Description: SANGER: Inhibition of human NCI-H2342 cell growth in a cell viability assay.

SK-MEL-24 = type: functional, cell-based; conditions: Homo sapiens;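 further: growth inhibition read out by a cell viability assay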
Description: SANGER: Inhibition of human SK-MEL-24 cell growth in a cell viability assay.

SW684 = type: functional, cell-based, Homo sapiens; conditions: Homo sapiens, SW684;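 further: growth inhibition of human SW684 cells, measured by a cell viability assay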
Description: SANGER: Inhibition of human SW684 cell growth in a cell viability assay.

SCC-15 = type: functional, cell-based, Homo sapiens; conditions: Homo sapiens, SCC-15;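 further: growth inhibition of SCC-15 cells, read out with a cell viability assay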
Description: SANGER: Inhibition of human SCC-15 cell growth in a cell viability assay.

SF-126 = type: functional, cell-based, Homo sapiens; conditions: Homo sapiens, SF-126;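 further: growth inhibition of human SF126 cells, read out with a cell viability assay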
Description: SANGER: Inhibition of human SF126 cell growth in a cell viability assay.

ETK-1 = type: functional, cell-based, Homo sapiens; conditions: Homo sapiens, ETK-1;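 further: growth inhibition of human ETK-1 cells, read out with a cell viability assay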
Description: SANGER: Inhibition of human ETK-1 cell growth in a cell viability assay.

MC116 = type: functional, cell-based; conditions: Homo sapiens;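 further: growth inhibition of MC116 cells, read out with a cell viability assay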
Description: SANGER: Inhibition of human MC116 cell growth in a cell viability assay.

NB7 = type: functional, cell-based; conditions: Homo sapiens;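 further: growth inhibition of NB7 cells, read out with a cell viability assay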
Description: SANGER: Inhibition of human NB7 cell growth in a cell viability assay.

HuO-3N1 = type: functional, cell-based, Homo sapiens; conditions: Homo sapiens, HuO-3N1;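 further: cell viability readout used to measure how strongly compounds suppress proliferation of human HuO-3N1 cells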
Description: SANGER: Inhibition of human HuO-3N1 cell growth in a cell viability assay.

NOMO-1 = type: functional, cell-based; conditions: Homo sapiens;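 further: growth inhibition of human NOMO-1 cells measured by a cell viability assay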
Description: SANGER: Inhibition of human NOMO-1 cell growth in a cell viability assay.

CTB-1 = type: functional, cell-based; conditions: Homo sapiens
Description: SANGER: Inhibition of human CTB-1 cell growth in a cell viability assay.

KYSE-410 = type: functional, cell-based, Homo sapiens; conditions: Homo sapiens, KYSE-410;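 further: growth inhibition of KYSE-410 cells, measured through a cell viability readout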
Description: SANGER: Inhibition of human KYSE-410 cell growth in a cell viability assay.

NCI-H1650 = type: functional, cell-based, Homo sapiens; conditions: Homo sapiens, NCI-H1650;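 further: growth inhibition of human NCI-H1650 cells measured by a cell viability assay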
Description: SANGER: Inhibition of human NCI-H1650 cell growth in a cell viability assay.

LC-2-ad = type: functional, cell-based, Homo sapiens; conditions: Homo sapiens, LC-2-ad;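 further: growth inhibition of human LC-2-ad cells, read out with a cell viability assay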
Description: SANGER: Inhibition of human LC-2-ad cell growth in a cell viability assay.

JAR = type: functional, cell-based, Homo sapiens; conditions: Homo sapiens, JAR;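 further: growth inhibition of human JAR cells determined with a cell viability assay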
Description: SANGER: Inhibition of human JAR cell growth in a cell viability assay.

Daoy = type: functional, cell-based, Homo sapiens; conditions: Homo sapiens, Daoy;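 further: daoy cell growth inhibition, read out as cell viability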
Description: SANGER: Inhibition of human Daoy cell growth in a cell viability assay.

RMG-I = type: functional, cell-based, Homo sapiens; conditions: Homo sapiens, RMG-I;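 further: growth inhibition of human RMG-I cells, read out with a cell viability assay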
Description: SANGER: Inhibition of human RMG-I cell growth in a cell viability assay.

GB-1 = type: functional, cell-based, Homo sapiens; conditions: Homo sapiens, GB-1;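 further: growth of GB-1 cells judged by a viability assay, IC50 marks the concentration inhibiting growth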
Description: SANGER: Inhibition of human GB-1 cell growth in a cell viability assay.

UACC-893 = type: functional, cell-based, Homo sapiens; conditions: Homo sapiens, UACC-893
Description: SANGER: Inhibition of human UACC-893 cell growth in a cell viability assay.

MV4-11 = type: functional, cell-based, MV-4-11; conditions: Homo sapiens;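 further: cell viability readout measuring growth inhibition of human MV-4-11 cells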
Description: SANGER: Inhibition of human MV-4-11 cell growth in a cell viability assay.

LoVo = type: functional, cell-based; conditions: Homo sapiens;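 further: growth inhibition of human LoVo cells, read out with a cell viability assay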
Description: SANGER: Inhibition of human LoVo cell growth in a cell viability assay.

MOLT-16 = type: functional, cell-based; conditions: Homo sapiens;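 further: growth inhibition of human MOLT-16 cells, read out with a cell viability assay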
Description: SANGER: Inhibition of human MOLT-16 cell growth in a cell viability assay.

OAW-28 = type: functional, cell-based, Homo sapiens; conditions: Homo sapiens, OAW-28;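 further: growth inhibition of OAW-28 cells, read out with a cell viability assay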
Description: SANGER: Inhibition of human OAW-28 cell growth in a cell viability assay.

GR-ST = type: functional, cell-based; conditions: Homo sapiens
Description: SANGER: Inhibition of human GR-ST cell growth in a cell viability assay.

KG-1 = type: functional, cell-based; conditions: Homo sapiens;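 further: growth inhibition of KG-1 cells, read out by a cell viability assay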
Description: SANGER: Inhibition of human KG-1 cell growth in a cell viability assay.

COLO-320-HSR = type: functional, cell-based; conditions: Homo sapiens;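 further: growth inhibition of COLO-320-HSR cells, determined with a cell viability assay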
Description: SANGER: Inhibition of human COLO-320-HSR cell growth in a cell viability assay.

ES5 = type: functional, cell-based, Homo sapiens; conditions: Homo sapiens, ES5;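 further: growth inhibition of human ES5 cells, read out by a cell viability assay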
Description: SANGER: Inhibition of human ES5 cell growth in a cell viability assay.

TGBC24TKB = type: functional, cell-based, Homo sapiens; conditions: Homo sapiens, TGBC24TKB;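 further: growth inhibition of human TGBC24TKB cells, read out with a cell viability assay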
Description: SANGER: Inhibition of human TGBC24TKB cell growth in a cell viability assay.

NCI-H1092 = type: functional, cell-based; conditions: Homo sapiens;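 further: cell growth inhibition measured with a cell viability assay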
Description: SANGER: Inhibition of human NCI-H1092 cell growth in a cell viability assay.

NCI-H526 = type: functional, cell-based; conditions: Homo sapiens;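 further: growth inhibition of the human NCI-H526 cell line, measured by a cell viability assay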
Description: SANGER: Inhibition of human NCI-H526 cell growth in a cell viability assay.

LB831-BLC = type: functional, cell-based, Homo sapiens; conditions: Homo sapiens, LB831-BLC;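 further: growth inhibition of LB831-BLC cells, read out with a cell viability assay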
Description: SANGER: Inhibition of human LB831-BLC cell growth in a cell viability assay.

KURAMOCHI = type: functional, cell-based; conditions: Homo sapiens;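 further: growth inhibition of KURAMOCHI cells, read out with a cell viability assay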
Description: SANGER: Inhibition of human KURAMOCHI cell growth in a cell viability assay.

GCT = type: functional, cell-based, Homo sapiens; conditions: Homo sapiens, GCT;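 further: GCT cell line proliferation inhibition, read out with a cell viability assay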
Description: SANGER: Inhibition of human GCT cell growth in a cell viability assay.

TE-6 = type: functional, cell-based, Homo sapiens; conditions: Homo sapiens, TE-6;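 further: growth inhibition of TE-6 cells, read out with a cell viability assay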
Description: SANGER: Inhibition of human TE-6 cell growth in a cell viability assay.

KM-H2 = type: functional, cell-based; conditions: Homo sapiens;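 further: growth inhibition of KM-H2 cells, read out by a cell viability assay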
Description: SANGER: Inhibition of human KM-H2 cell growth in a cell viability assay.

SiHa = type: functional, cell-based, Homo sapiens; conditions: Homo sapiens, SiHa;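 further: Viability-based readout of growth inhibition in SiHa cells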
Description: SANGER: Inhibition of human SiHa cell growth in a cell viability assay.

D-247MG = type: functional, cell-based, Homo sapiens; conditions: Homo sapiens, D-247MG
Description: SANGER: Inhibition of human D-247MG cell growth in a cell viability assay.

DJM-1 = type: functional, cell-based, Homo sapiens; conditions: Homo sapiens, DJM-1;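 further: growth inhibition of human DJM-1 cells, read out by a cell viability assay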
Description: SANGER: Inhibition of human DJM-1 cell growth in a cell viability assay.

EGI-1 = type: functional, cell-based, Homo sapiens; conditions: Homo sapiens, EGI-1;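 further: cell viability readout used to gauge growth inhibition of EGI-1 cells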
Description: SANGER: Inhibition of human EGI-1 cell growth in a cell viability assay.

DBTRG-05MG = type: functional, cell-based, Homo sapiens; conditions: Homo sapiens, DBTRG-05MG;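 further: cell viability assay measuring growth inhibition of human DBTRG-05MG cells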
Description: SANGER: Inhibition of human DBTRG-05MG cell growth in a cell viability assay.

SMILES: COc1cc(F)c(F)c(Nc2ccc(I)cc2F)c1NS(=O)(=O)C1(CC(O)CO)CC1 (centres undefined)
- IC50 (BT-20): > 5 µM
- IC50 (LN-405): > 5 µM
- IC50 (BB49-HNC): > 5 µM
- IC50 (MSTO-211H): 3.08 µM
- IC50 (KARPAS-45): 1.14 µM
- IC50 (8305C): 1.29 µM
- IC50 (NB5): 0.978 µM
- IC50 (G-402): > 5 µM
- IC50 (RVH-421): 0.0335 µM
- IC50 (SW-620): 0.276 µM
- IC50 (COLO-792): 0.761 µM
- IC50 (SW 962): 1.5 µM
- IC50 (NCI-H2342): > 5 µM
- IC50 (SK-MEL-24): > 5 µM
- IC50 (SW684): > 5 µM
- IC50 (SCC-15): > 5 µM
- IC50 (SF-126): > 5 µM
- IC50 (ETK-1): 4.24 µM
- IC50 (MC116): > 5 µM
- IC50 (NB7): 4.71 µM
- IC50 (HuO-3N1): > 5 µM
- IC50 (NOMO-1): 0.137 µM
- IC50 (CTB-1): > 5 µM
- IC50 (KYSE-410): 3.35 µM
- IC50 (NCI-H1650): > 5 µM
- IC50 (LC-2-ad): > 5 µM
- IC50 (JAR): > 5 µM
- IC50 (Daoy): > 5 µM
- IC50 (RMG-I): > 5 µM
- IC50 (GB-1): 3.6 µM
- IC50 (UACC-893): > 5 µM
- IC50 (MV4-11): 0.812 µM
- IC50 (LoVo): 0.396 µM
- IC50 (MOLT-16): > 5 µM
- IC50 (OAW-28): > 5 µM
- IC50 (GR-ST): > 5 µM
- IC50 (KG-1): > 5 µM
- IC50 (COLO-320-HSR): > 5 µM
- IC50 (ES5): > 5 µM
- IC50 (TGBC24TKB): > 5 µM
- IC50 (NCI-H1092): > 5 µM
- IC50 (NCI-H526): > 5 µM
- IC50 (LB831-BLC): > 5 µM
- IC50 (KURAMOCHI): > 5 µM
- IC50 (GCT): > 5 µM
- IC50 (TE-6): > 5 µM
- IC50 (KM-H2): > 5 µM
- IC50 (SiHa): > 5 µM
- IC50 (D-247MG): > 5 µM
- IC50 (DJM-1): > 5 µM
- IC50 (EGI-1): 1.31 µM
- IC50 (DBTRG-05MG): > 5 µM

SMILES: O=C1N=C(NCc2cccs2)S/C1=C\c1ccc2ncccc2c1
- IC50 (BT-20): > 5 µM
- IC50 (LN-405): > 5 µM
- IC50 (BB49-HNC): > 5 µM
- IC50 (MSTO-211H): > 5 µM
- IC50 (KARPAS-45): > 5 µM
- IC50 (8305C): > 5 µM
- IC50 (NB5): > 5 µM
- IC50 (G-402): > 5 µM
- IC50 (RVH-421): > 5 µM
- IC50 (SW-620): > 5 µM
- IC50 (COLO-792): > 5 µM
- IC50 (SW 962): > 5 µM
- IC50 (NCI-H2342): > 5 µM
- IC50 (SK-MEL-24): > 5 µM
- IC50 (SW684): > 5 µM
- IC50 (SCC-15): > 5 µM
- IC50 (SF-126): > 5 µM
- IC50 (ETK-1): > 5 µM
- IC50 (MC116): > 5 µM
- IC50 (NB7): > 5 µM
- IC50 (HuO-3N1): > 5 µM
- IC50 (NOMO-1): > 5 µM
- IC50 (CTB-1): > 5 µM
- IC50 (KYSE-410): > 5 µM
- IC50 (NCI-H1650): > 5 µM
- IC50 (LC-2-ad): > 5 µM
- IC50 (JAR): > 5 µM
- IC50 (Daoy): > 5 µM
- IC50 (RMG-I): > 5 µM
- IC50 (GB-1): > 5 µM
- IC50 (UACC-893): > 5 µM
- IC50 (MV4-11): > 5 µM
- IC50 (LoVo): > 5 µM
- IC50 (MOLT-16): > 5 µM
- IC50 (OAW-28): > 5 µM
- IC50 (GR-ST): > 5 µM
- IC50 (KG-1): > 5 µM
- IC50 (COLO-320-HSR): > 5 µM
- IC50 (ES5): > 5 µM
- IC50 (TGBC24TKB): > 5 µM
- IC50 (NCI-H1092): > 5 µM
- IC50 (NCI-H526): > 5 µM
- IC50 (LB831-BLC): > 5 µM
- IC50 (KURAMOCHI): > 5 µM
- IC50 (GCT): > 5 µM
- IC50 (TE-6): > 5 µM
- IC50 (KM-H2): > 5 µM
- IC50 (SiHa): > 5 µM
- IC50 (D-247MG): > 5 µM
- IC50 (DJM-1): > 5 µM
- IC50 (EGI-1): > 5 µM
- IC50 (DBTRG-05MG): > 5 µM
